According to patent EP0398231B1, “Nucleoside analogs” (INSTITUTE OF ORGANIC CHEMISTRY AND BIOCHEMISTRY OF THE …, priority 1989, dated 1990):
In brackets after ≈: the same amount, converted by molar mass. Structures can show the parent of a compound that is named as a salt. Where two headings read alike, the source gives them in different places.

Key:
R-MuLV = experiment: UV-XC plaque assay in SC-1 cells, R-MuLV; format: cell-based, murine leukemia virus
Description: (§1) The compounds were evaluated for antiviral activity against murine leukemia virus (MuLV) strains using the UV-XC plaque assay (Rowe, et al., Virology, 42:1136, 1970).
(§2) The MuLV strains were grown in feral mouse cells (SC-1) and used for antiviral tests using the UV-XC plaque assay. Briefly, SC-1 cells are grown as monolayers in 4-well tissue culture plates and inoculated with approximately 50-100 plaque forming units of MuLV in 0.5 ml of 5% EMEM containing 20 µg/ml DEAE/Dextran. After 1 hour adsorbtion, the inoculum is removed and 5 ml of 5% EMEM containing three-fold dilutions of the appropriate drug are added. Five days later, the cultures are UV-irradiated with an ultraviolet lamp and rat XC sarcoma cells are added to the cultures. Three-four days after UV-irradiation, the cell cultures are stained with Giemsa stain and the plaques are enumerated. Antiviral activity is expressed in terms of the reduction in the mean number of UX-XC plaques counted in the drug treated, virus-infected cultures compared with mean number of plaques counted in untreated, virus-infected control cultures.

HIV (LAV strain) = experiment: HIV in vitro assay in CEM cells, p-24 gag protein ELISA; format: cell-based
Description: The HIV in vitro assay described as follows was used: The anti-HIV/LAV activity is measured in cultures of CEM-F cells.

MuLV = experiment: UV-XC plaque assay in SC-1 cells, MuLV; format: cell-based, murine leukemia virus; details: Virus MuLV, Cell-line SC-1; read-out: ID50 (the source's name)
Description: as §1, §2
(§3) This compound was evaluated for anti-retroviral activity by the methods described in Examples 43 and 44. AZT controls were run simultaneously to confirm the validity of the test.

HIV = HIV assay in MT-4 cells; format: cell-based; details: Virus HIV, Cell-line MT-4; read-out: ID50 (the source's name)
Description: as §3

SC-1 = format: cell-based; details: mouse, sc-1 cells
HSV-1 = experiment: Plaque reduction assay in vero cells, HSV-1; format: cell-based, Herpes simplex virus; details: Human alphaherpesvirus 1, 48 hour incubation, read-out: ID50 HVS-1
Description: (§4) Herpes simplex virus (HSV) strains were grown and titered at 37°C in vero cells (African Green Monkey Kidney cells) and used for virus work before the tenth passage.
(§5) Cells were grown and maintained in Earle's Minimum Essential Medium (EMEM), Gibco Laboratories, supplemented with 0.75% sodium bicarbonate, 2mM 1-glutamine, Pen-strep. and 5-10% fetal calf serum.
(§6) The titer of HSV strains is determined by a plaque titration method (Roizman and Roane, Virology, 115:75-79, 1961). Tissue culture 24-well petri dishes are seeded with cells and used for assays when approximately 75% monolayer. Volumes (0.1ml) of logarithmic dilutions of the virus strain are inoculated onto each of triplicate wells, and absorbed for one hour with intermittent shaking. […] The number of plaques is counted, the triplicate is averaged, and the number of plaque-forming units per ml is calculated.
(§7) The compounds are tested for activity against the herpes simplex stains using a stock solution of each compound freshly prepared. […] The antiviral efficacy of each compound is determined using the plaque reduction assay described above. […] After a 48-hour incubation period, at 37°C in a 5% CO2 atmosphere, the overlay medium is removed, the cells are stained as described above, and plaques are counted. The counts of triplicate wells are averaged, and the number of plaques in the presence of each drug dilution are calculated. […]

HSV-2 = experiment: Plaque reduction assay in vero cells, HSV-2; format: cell-based, Herpes simplex virus; details: Human alphaherpesvirus 2, 48 hour incubation, read-out: ID50 HVS-2
Description: as §4, §5, §6, §7

[1] = system: Herpes simplex virus-1 (HL-34 strain); experiment: HSV-1 systemic infection in mice, survival at 21 days; format: in vivo; details: i.p.; for Survival: BID for 5 consecutive days, from 3 hours post-infection, 21 days
Description: Groups of ten mice were inoculated intraperitoneally with from 200 to 600 PFU/0.2ml of Herpes simplex virus-1 (HL-34 strain). Different doses of test compound were administered to separate groups of animals on a BID basis for five consecutive days commencing three hours after inoculation. Treatment was by an intraperitoneal route. The experiment was teminated 21 days post inoculation and the number of survivals in each group was counted. The mean survival time (MST, days) was calculated.

Herpes simplex virus - 2 = experiment: Survival of mice inoculated with Herpes simplex virus-2, 21 day protocol; format: in vivo
Description: A preferred example of one of these compounds, known as (S)-HPMPA (Formula 4') was disclosed by DeClercq, et al., in Nature, 1986, 323, pp. 464-467 and earlier by Holy, et al., Nucleic Acids Research, Symposium Series No. 14, 1984, pp. 277-278. Phosphonate compounds which are HPMPA analogs are described in South African Patent 1987/8607. […] In a 21 day protocol 30% of a group of animals treated i.p. with 50 mg/kg/day of (S)-HPMPA survived. [drawing 4]

[2] = Murine leukemia virus, SC1, UV-XC plaque assay, SC-1 cells, read-out: ID50 R-MuLV

With “9-[2,3-Dideoxy-2,3-didehydro-4-β-phosphonomethoxy-β-D-erythrofuranosyl]adenine ammonium salt [Example 50]” the IC50 (R-MuLV; Virus MuLV-R, Cell-line SC-1, read-out: ID50 (the source's name)) was 10 nM, the IC50 (HIV (LAV strain); Virus HIV, Cell-line CEM, read-out: ID50 (the source's name)) was 45000 nM and the IC50 (MuLV) was less than 100 nM. It also gave an IC50 (HIV) of 1500 nM and a CC50 (SC-1) greater than 100000 nM.
Work on `Cc1cn(C2C=CC(OCP(=O)(O)O)O2)c(=O)[nH]c1=O` [Compound 25, 1-[2,3-Dideoxy-2,3-didehydro-4-phosphonomethoxy-beta-D-erythrofuranosyl]thymine disodium salt] yielded an IC50 (R-MuLV; [2]) of 0.3 µg/mL and an IC50 (HIV (LAV strain); Human immunodeficiency virus 1, CCRF-CEM, 192 h, CEM-F cells, 8 days, p-24 gag protein ELISA, read-out: ID50 HIV) of 1.8 µg/mL.
`Nc1nc2c(ncn2COCOCP(=O)(O)O)c(=O)[nH]1` [Compound 8, 9-[3-(Phosphonomethoxy)methoxymethyl]guanine disodium salt] was tested, and the IC50 (HSV-1) was 2.6 µg/mL, the IC50 (HSV-2) was 11 µg/mL and the Survival ([1]; Dose 10 mg/kg/d) was 3/10. The Survival ([1]; Dose 100 mg/kg/d) was 9/10, the Survival ([1]; Dose 300 mg/kg/d) was 10/10 and the “activity compared with ACV in vivo (in words)” value ([1]; HSV-1 systemic infection in mice) was “equally as active as ACV”.
`Cc1cn([C@H]2C[C@H](N=[N+]=[N-])[C@@H](CO)O2)c(=O)[nH]c1=O` [AZT, reference compound] was tested, and the IC50 (R-MuLV; [2]) was 0.05 µg/mL and the IC50 (HIV (LAV strain); Human immunodeficiency virus 1, CCRF-CEM, 192 h, read-out: ID50 HIV) was 0.1 µg/mL.
For `Nc1nc2c(ncn2COCCO)c(=O)[nH]1` [ACV, Acyclovir, reference compound], the IC50 (HSV-1) was 0.5 µg/mL (≈ 2.22 µM), the IC50 (HSV-2) was 0.5 µg/mL (≈ 2.22 µM) and the Survival ([1]; Dose 100 mg/kg/d) was 7/10. The Survival ([1]; Dose 200 mg/kg/d) was 6/7.
With `Nc1ncnc2c1ncn2C[C@@H](CO)OCP(=O)(O)O` [(S)-HPMPA] the “activity in mice inoculated with Herpes simplex virus - 2 (in words)” value (Herpes simplex virus - 2; in applicant's hands) was “only slightly active” and the survived (Herpes simplex virus - 2; mice inoculated with Herpes simplex virus - 2, i.p. 50 mg/kg/day, 21 day protocol) was 30%.
